Reference: ChEMBL document CHEMBL1201862, “PubChem BioAssay data set” (2004)
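96-well plates; 48 h exposure; 5 concentrations. Endpoints by linear interpolation between flanking doses. Not reached: highest tested concentration assigned. The concentration for 50% growth inhibition is given as GI50.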 Active and inactive are the calls of the source. No stated cut-off is given here; in the data, active = GI50 up to about 1.1 µM and inactive = higher.

Tests used:
Experiment in all cases: NCI tumour cell line growth inhibition, 48 h
UACC-257 = test system: UACC-257
NCI-H522 = test system: NCI-H522
MCF7 = test system: MCF7
MDA-MB-435 = test system: MDA-MB-435
Malme-3M = test system: Malme-3M
HT-29 = test system: HT-29
SF-268 = test system: SF-268
NCI/ADR-RES = test system: NCI/ADR-RES
UACC-62 = test system: UACC-62
HCC 2998 = test system: HCC 2998
RXF 393 = test system: RXF 393
SN12C = test system: SN12C
K562 = test system: K562
RPMI-8226 = test system: RPMI-8226
SNB-75 = test system: SNB-75
SW-620 = test system: SW-620
OVCAR-8 = test system: OVCAR-8
SK-MEL-28 = test system: SK-MEL-28
SK-OV-3 = test system: SK-OV-3
TK-10 = test system: TK-10

| Compound | GI50 (UACC-257) | GI50 (NCI-H522) | GI50 (MCF7) | GI50 (MDA-MB-435) | GI50 (Malme-3M) | GI50 (HT-29) | GI50 (SF-268) | GI50 (NCI/ADR-RES) | GI50 (UACC-62) | GI50 (HCC 2998) | GI50 (RXF 393) | GI50 (SN12C) | GI50 (K562) | GI50 (RPMI-8226) | GI50 (SNB-75) | GI50 (SW-620) | GI50 (OVCAR-8) | GI50 (SK-MEL-28) | GI50 (SK-OV-3) | GI50 (TK-10) |
| --- | --- | --- | --- | --- | --- | --- | --- | --- | --- | --- | --- | --- | --- | --- | --- | --- | --- | --- | --- | --- |
| CCOC(=O)C1=C(N)N2C(=N[C@H]3CCCC[C@@H]32)N=C1 | > 100 µM (inactive) | > 100 µM (inactive) | > 100 µM (inactive) | > 100 µM (inactive) | > 100 µM (inactive) | > 100 µM (inactive) | > 100 µM (inactive) | > 100 µM (inactive) | > 100 µM (inactive) | > 100 µM (inactive) | > 100 µM (inactive) | > 100 µM (inactive) | > 100 µM (inactive) | > 100 µM (inactive) | 38.3 µM (inactive) | > 100 µM (inactive) | > 100 µM (inactive) | > 100 µM (inactive) | > 100 µM (inactive) | – |
| N#Cc1c(-c2ccco2)c2c(n(C3OC(CO)C(O)C(O)C3O)c1=S)CCCC2 (stereo not given) | > 100 µM (inactive) | > 100 µM (inactive) | > 100 µM (inactive) | > 100 µM (inactive) | > 100 µM (inactive) | > 100 µM (inactive) | > 100 µM (inactive) | > 100 µM (inactive) | > 100 µM (inactive) | > 100 µM (inactive) | > 100 µM (inactive) | > 100 µM (inactive) | – | – | 0.0239 µM (active) | – | > 100 µM (inactive) | > 100 µM (inactive) | > 100 µM (inactive) | > 100 µM (inactive) |
| CCc1c(C)c(C#N)c(=S)n(C2OC(CO)C(O)C(O)C2O)c1C (stereo not given) | > 100 µM (inactive) | > 100 µM (inactive) | > 100 µM (inactive) | > 100 µM (inactive) | > 100 µM (inactive) | > 100 µM (inactive) | > 100 µM (inactive) | > 100 µM (inactive) | > 100 µM (inactive) | > 100 µM (inactive) | > 100 µM (inactive) | > 100 µM (inactive) | > 100 µM (inactive) | – | 65.2 µM (inactive) | > 100 µM (inactive) | > 100 µM (inactive) | > 100 µM (inactive) | > 100 µM (inactive) | > 100 µM (inactive) |
| CCOC(=O)C1C(=O)CC(C)(O)C(C(=O)OCC)C1c1ccc(O)c(OC)c1 (stereo not given) | > 100 µM (inactive) | > 100 µM (inactive) | > 100 µM (inactive) | > 100 µM (inactive) | > 100 µM (inactive) | > 100 µM (inactive) | > 100 µM (inactive) | > 100 µM (inactive) | > 100 µM (inactive) | > 100 µM (inactive) | > 100 µM (inactive) | > 100 µM (inactive) | > 100 µM (inactive) | – | > 100 µM (inactive) | > 100 µM (inactive) | > 100 µM (inactive) | > 100 µM (inactive) | – | > 100 µM (inactive) |
| CN(C)c1ccc(/C=C/c2ccnc3ccccc23)cc1 | > 100 µM (inactive) | – | 90.2 µM (inactive) | 23.1 µM (inactive) | 53.2 µM (inactive) | 25.3 µM (inactive) | > 100 µM (inactive) | 64.3 µM (inactive) | 43.1 µM (inactive) | > 100 µM (inactive) | 54.3 µM (inactive) | 64.9 µM (inactive) | 33.5 µM (inactive) | 51.1 µM (inactive) | 28.8 µM (inactive) | 39.4 µM (inactive) | – | 72.6 µM (inactive) | 54.5 µM (inactive) | 65.8 µM (inactive) |
| CCOC(=O)CC(=O)Nc1c(C(=O)OCC)sc2nc(SC)nc(Nc3ccc(OC)c(OC)c3)c12 | > 100 µM (inactive) | 13.6 µM (inactive) | 38.2 µM (inactive) | > 100 µM (inactive) | > 100 µM (inactive) | 60.1 µM (inactive) | 3.19 µM (inactive) | 8.77 µM (inactive) | 24.6 µM (inactive) | > 100 µM (inactive) | 10.7 µM (inactive) | 60.3 µM (inactive) | – | – | 1.99 µM (inactive) | > 100 µM (inactive) | 34.4 µM (inactive) | > 100 µM (inactive) | – | 17.8 µM (inactive) |
| CCOC(=O)/C(=C/NC(=S)Nc1c(CC)cccc1C(C)(C)C)C(=O)c1ccccc1 | > 100 µM (inactive) | > 100 µM (inactive) | 88.9 µM (inactive) | > 100 µM (inactive) | > 100 µM (inactive) | > 100 µM (inactive) | > 100 µM (inactive) | > 100 µM (inactive) | > 100 µM (inactive) | > 100 µM (inactive) | > 100 µM (inactive) | > 100 µM (inactive) | 42.2 µM (inactive) | 88.9 µM (inactive) | 29.3 µM (inactive) | > 100 µM (inactive) | > 100 µM (inactive) | > 100 µM (inactive) | > 100 µM (inactive) | – |
| O=C1NC(=S)N/C1=C\c1ccc(Sc2ccccc2C(=O)O)s1 | > 100 µM (inactive) | 22.1 µM (inactive) | > 100 µM (inactive) | > 100 µM (inactive) | > 100 µM (inactive) | > 100 µM (inactive) | > 100 µM (inactive) | > 100 µM (inactive) | 85.3 µM (inactive) | > 100 µM (inactive) | > 100 µM (inactive) | > 100 µM (inactive) | 93.5 µM (inactive) | > 100 µM (inactive) | > 100 µM (inactive) | > 100 µM (inactive) | > 100 µM (inactive) | > 100 µM (inactive) | – | > 100 µM (inactive) |
| COc1ccc(/C=N/n2c(Cc3ccc(Cl)cc3)n[nH]c2=O)cc1 | > 100 µM (inactive) | – | 77.8 µM (inactive) | > 100 µM (inactive) | – | 13.6 µM (inactive) | – | 32.8 µM (inactive) | 52.2 µM (inactive) | > 100 µM (inactive) | 16.8 µM (inactive) | 59.7 µM (inactive) | > 100 µM (inactive) | > 100 µM (inactive) | 16.6 µM (inactive) | > 100 µM (inactive) | 16.7 µM (inactive) | > 100 µM (inactive) | 36 µM (inactive) | – |
| O=C1Oc2ccccc2C(=O)/C1=C/N1C(=O)/C(=C/c2ccc([N+](=O)[O-])cc2)SC1=S | 25.8 µM (inactive) | 20.7 µM (inactive) | 35.6 µM (inactive) | 16.4 µM (inactive) | 36.2 µM (inactive) | 32.6 µM (inactive) | 23.2 µM (inactive) | 23.7 µM (inactive) | 17.9 µM (inactive) | 19.1 µM (inactive) | 25.7 µM (inactive) | 20.4 µM (inactive) | 19.4 µM (inactive) | 5.65 µM (inactive) | 16.6 µM (inactive) | 21.8 µM (inactive) | 21.8 µM (inactive) | 22.7 µM (inactive) | 31.5 µM (inactive) | – |
| O=C(C[n+]1ccccc1)N/N=C(\Cc1nc2ccc([N+](=O)[O-])cc2nc1O)C(=O)Nc1cc(Cl)c(Cl)cc1Cl | > 100 µM (inactive) | 61.8 µM (inactive) | 67.3 µM (inactive) | > 100 µM (inactive) | > 100 µM (inactive) | > 100 µM (inactive) | > 100 µM (inactive) | 60.1 µM (inactive) | > 100 µM (inactive) | 59 µM (inactive) | > 100 µM (inactive) | > 100 µM (inactive) | > 100 µM (inactive) | > 100 µM (inactive) | 19.4 µM (inactive) | > 100 µM (inactive) | > 100 µM (inactive) | > 100 µM (inactive) | > 100 µM (inactive) | – |
| Cc1cn([C@@H]2C[C@H](CO)[C@@H]2O)c(=O)[nH]c1=O | > 100 µM (inactive) | > 100 µM (inactive) | > 100 µM (inactive) | > 100 µM (inactive) | > 100 µM (inactive) | > 100 µM (inactive) | > 100 µM (inactive) | > 100 µM (inactive) | – | > 100 µM (inactive) | > 100 µM (inactive) | > 100 µM (inactive) | > 100 µM (inactive) | > 100 µM (inactive) | > 100 µM (inactive) | > 100 µM (inactive) | > 100 µM (inactive) | > 100 µM (inactive) | – | > 100 µM (inactive) |
| CCOC(=O)c1cc2c([nH]1)C(=O)CC1=C2CCN1Cc1ccccc1 | 17.4 µM (inactive) | 17.9 µM (inactive) | 13.3 µM (inactive) | 13.2 µM (inactive) | 5.65 µM (inactive) | 16 µM (inactive) | 21.3 µM (inactive) | 20.7 µM (inactive) | 14.8 µM (inactive) | – | 13.9 µM (inactive) | 18.2 µM (inactive) | 3.8 µM (inactive) | 3.81 µM (inactive) | 23.3 µM (inactive) | 5.36 µM (inactive) | 23.1 µM (inactive) | 17.2 µM (inactive) | 19.4 µM (inactive) | 13.9 µM (inactive) |
| COc1cc2c(cc1OCCCOc1cc3c(cc1OC)C(=O)N1CCC[C@H]1C(=O)N3)N=C[C@@H]1CCCN1C2=O | 24.5 µM (inactive) | 1.73 µM (inactive) | 4.52 µM (inactive) | 15.8 µM (inactive) | 10.9 µM (inactive) | 16.9 µM (inactive) | 4.82 µM (inactive) | 76.7 µM (inactive) | 6.62 µM (inactive) | 14.3 µM (inactive) | 13.3 µM (inactive) | 15.7 µM (inactive) | 3.77 µM (inactive) | 6.46 µM (inactive) | 10.1 µM (inactive) | 11 µM (inactive) | 23.4 µM (inactive) | 21 µM (inactive) | – | 25.8 µM (inactive) |
| Oc1nc(S)nc(SCc2c(Cl)c(Cl)c(Cl)c(Cl)c2Cl)n1 | > 88.3 µM (inactive) | 18.2 µM (inactive) | 37.2 µM (inactive) | 36.9 µM (inactive) | 27.5 µM (inactive) | 28.1 µM (inactive) | 40 µM (inactive) | > 58.5 µM (inactive) | > 92.7 µM (inactive) | – | 16.9 µM (inactive) | 49.5 µM (inactive) | 15.3 µM (inactive) | 7.18 µM (inactive) | > 100 µM (inactive) | 32.4 µM (inactive) | 62.7 µM (inactive) | 31.1 µM (inactive) | > 96.4 µM (inactive) | > 80.2 µM (inactive) |
